Source: patent publication EP0810221A1 (MITSUBISHI CHEMICAL CORPORATION, priority 1995, dated 1996)
pIC50: −log10 of the molar value.

Legend:
[1] = system: IgG; conditions: cited from earlier work
[2] = system: IgE; conditions: cited from earlier work
[3] = rats, osteoclasia accentuated by parathormone; cited from earlier work
[4] = molecular target: T1, cathepsin B (Sigma, C-6286) (Bos taurus, UniProt P07688); assay: Inhibitory activity against cathepsin B; format: biochemical; conditions: Inhibitory activity against cathepsin B (Table-5)
T1 construct: purchased Sigma C-6286
Procedure: Inhibitory activity against cathepsin B (Sigma, C-6286) was determined according to a method described in a literature (Biochemical Journal, Vol. 201, p. 189, 1982).

[5] = molecular target: T2, m-Calpain (Rattus norvegicus, UniProt Q07009); assay: Inhibitory activity against calpain (m-Calpain purified from brains of rats); format: biochemical; conditions: Inhibitory activity against calpain (continuation of Table-6)
T2 construct: m-Calpain was purified from brains of rats; from tissue; host or cells: rat brain
T2 sequence (Q07009 20-700 limits assumed): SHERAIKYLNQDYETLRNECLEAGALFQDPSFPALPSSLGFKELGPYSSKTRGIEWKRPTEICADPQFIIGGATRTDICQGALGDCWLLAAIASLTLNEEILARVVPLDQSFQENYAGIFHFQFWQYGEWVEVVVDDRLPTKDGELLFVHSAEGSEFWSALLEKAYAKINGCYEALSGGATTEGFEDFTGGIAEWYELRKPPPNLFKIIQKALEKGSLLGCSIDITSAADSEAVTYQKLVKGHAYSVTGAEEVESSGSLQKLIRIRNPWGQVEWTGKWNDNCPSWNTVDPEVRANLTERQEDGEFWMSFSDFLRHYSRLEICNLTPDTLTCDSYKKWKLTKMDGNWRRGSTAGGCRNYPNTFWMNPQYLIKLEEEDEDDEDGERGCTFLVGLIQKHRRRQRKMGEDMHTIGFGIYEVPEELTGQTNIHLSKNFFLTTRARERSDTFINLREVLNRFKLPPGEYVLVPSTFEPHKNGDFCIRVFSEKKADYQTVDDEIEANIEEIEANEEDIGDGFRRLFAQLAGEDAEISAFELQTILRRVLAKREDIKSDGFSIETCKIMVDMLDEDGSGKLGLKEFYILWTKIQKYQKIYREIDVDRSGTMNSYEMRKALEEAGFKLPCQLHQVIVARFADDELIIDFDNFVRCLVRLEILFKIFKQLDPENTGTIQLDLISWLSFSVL
T2 sequence (Q64537 1-270 partner): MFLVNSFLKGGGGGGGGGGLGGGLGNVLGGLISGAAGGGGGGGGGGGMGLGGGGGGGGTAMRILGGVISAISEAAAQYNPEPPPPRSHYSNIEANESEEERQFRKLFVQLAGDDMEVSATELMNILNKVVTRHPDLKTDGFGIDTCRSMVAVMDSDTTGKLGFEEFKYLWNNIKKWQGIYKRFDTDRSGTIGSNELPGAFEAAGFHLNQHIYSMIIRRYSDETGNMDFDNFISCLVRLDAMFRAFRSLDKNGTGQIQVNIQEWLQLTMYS
Procedure: m-Calpain was purified from brains of rats according to a method described in a literature (Journal of Biological Chemistry, Vol. 259, p. 3210, 1984), and the inhibitory activity was determined in a manner according to a published method (Journal of Biological Chemistry, Vol. 259, p. 12489, 1984).

[6] = Release of an active compound in blood: incubation in rat serum, HPLC; format: in vitro ADME; conditions: final concentration 100 µ M, 37°C, 5 minutes
Procedure: (2S,3S)-2-acetoxy-3-((S)-4-methyl-2-phenylsulfonylaminovalerylamino)tetrahydrofuran obtained in Example 88 was dissolved in acetonitrile and the solution was added to rat serum so that its final concentration was adjusted to 100 µ M. The mixture was incubated at 37°C for 5 minutes. The mixture was then added with acetonitrile and centrifuged, and the resulting solution portion was applied to HPLC for analysis. For comparison, solutions obtained by dissolving (3S)-3-((S)-4-methyl-2-phenylsulfonylaminovalerylamino)-2-tetrahydrofuranol obtained in Example 1 and (2S,3S)-2-acetoxy-3-((S)-4-methyl-2-phenylsulfonylaminovalerylamino)tetrahydrofuran obtained in Example 88 in acetonitrile respectively were examined by HPLC.
The HPLC conditions were as follows: Column: Nucleosil 1005 C18, 4.6×250 mm (Nagel) Column temperature: 50°C Mobile phase: CH3CN:H2O:PIC A Low UV (Waters) = 22:78:1 Flow rate: 1 ml/min Detection wavelength: UV 222 nm

[7] = Release of an active compound in blood: incubation in human serum, HPLC; format: in vitro ADME; conditions: same procedure
[8] = Acute toxicity test, oral; conditions: both sexes, rat, in vivo, orally administered, suspended in 0.5% aqueous CMC-Na, SD male and female rats, observed for seven days
From the text: Compounds of the present invention was suspended in 0.5% aqueous solution of CMC-Na and the suspensions were orally administered to SD male and female rats.

[9] = Release of an active compound in blood: incubation in dog serum, HPLC; format: in vitro ADME; conditions: same procedure
[10] = system: experimental model of cataract; conditions: cited from earlier work
[11] = system: microtubule-binding proteins; conditions: after cerebral ischemia; cited from earlier work
[12] = system: blood platelets; conditions: cited from earlier work
[13] = system: muscular dystrophy hamsters; conditions: cited from earlier work
[14] = system: animal model of myocardial infarct; conditions: in vivo; cited from earlier work
[15] = system: axon; conditions: head injury model using a rat; cited from earlier work

## NC(N)=NCCCCNC(=O)[C@H](Cc1ccccc1)NC(=O)[C@H]1O[C@@H]1C(=O)O [Estatin A]
[1]
  production of IgG: does not affect
[2]
  production of IgE: specifically suppresses
[3]
  hydroxyproline concentration: lowered
  serum calcium concentration: lowered

## CC(C)C[C@H](NS(=O)(=O)c1cccnc1)C(=O)N[C@H]1CCOC1O (stereo partly drawn) [Example 77, (3S)-3-{(S)-4-methyl-2-(3-pyridylsulfonylamino)valerylamino}-2-tetrahydrofuranol]
[4]
  pIC50: 6.40
[5]
  pIC50: 6.00

## CC(C)C[C@H](NC(=O)[C@H](CC(C)C)NS(=O)(=O)c1ccccc1)C(=O)N[C@H]1CCOC1O (stereo partly drawn) [Example 87, (3S)-3-{(S)-2-((S)-4-methyl-2-phenylsulfonylaminovalerylamino)-4-methylvalerylamino}-2-tetrahydrofuranol]
[4]
  pIC50: 5.89
[5]
  pIC50: 6.11

## CC(=O)O[C@@H]1OCC[C@@H]1NC(=O)[C@H](CC(C)C)NS(=O)(=O)c1ccccc1 [Example 88, (2S,3S)-2-acetoxy-3-((S)-4-methyl-2-phenylsulfonylaminovalerylamino)tetrahydrofuran]
[6]
  hydrolyzed and converted into the active form: 97%
[7]
  formation of active form: formations of active form were also observed
[8]
  LD50 at 7 days: < 2000 mg/kg
[9]
  formation of active form: formations of active form were also observed

## CC(=O)O[C@@H]1OCC[C@@H]1NC(=O)[C@H](CC(C)C)NC(=O)c1ccccc1F [Example 96, (2S,3S)-2-acetoxy-3-{(S)-2-(2-fluorobenzoylamino)-4-methylvalerylamino}tetrahydrofuran]
[8]
  LD50 at 7 days: < 2000 mg/kg

## CC(=O)O[C@@H]1OCC[C@@H]1NC(=O)[C@H](CC(C)C)NS(=O)(=O)c1ccc(C)cc1 [Example 106, (2S,3S)-2-acetoxy-3-{(S)-4-methyl-2-(4-methylphenylsulfonylamino)valerylamino}tetrahydrofuran]
[8]
  LD50 at 7 days: < 2000 mg/kg

## CC(C)C[C@H](NC(=O)[C@H]1O[C@@H]1C(=O)O)C(=O)NCCCCN=C(N)N [Example E-64, E-64]
[10]
  efficacy in an experimental model of cataract: effective
[3]
  hydroxyproline concentration: lowered
  serum calcium concentration: lowered

## CC(C)CCNC(=O)[C@H](CC(C)C)NC(=O)[C@H]1O[C@@H]1C(=O)O [Example E-64-c, E-64-c]
[11]
  degradation of microtubule-binding proteins: suppressed

## CCOC(=O)[C@H]1O[C@@H]1C(=O)N[C@@H](CC(C)C)C(=O)NCCC(C)C [Example E-64-d, E-64-d]
[12]
  platelet aggregation caused by thrombin: suppressed
[13]
  life prolongation effect: life prolongation effect

## CCOC(=O)[C@@H]1O[C@H]1C(=O)NC(CC(C)C)C(=O)N1CCN(Cc2ccc(OC)c(OC)c2OC)CC1.CCOC(=O)[C@@H]1O[C@H]1C(=O)NC(CC(C)C)C(=O)N1CCN(Cc2ccc(OC)c(OC)c2OC)CC1.O=S(=O)(O)O (stereo partly shown) [NCO-700]
[14]
  efficacy in an animal model of myocardial infarct: effective

## CC(=O)N[C@@H](CC(C)C)C(=O)N[C@@H](CC(C)C)C(=O)N[C@H](C=O)CCCNC(=N)N [leupeptin]
[15]
  protective effect on axon: protective effect on axon was observed
